Target: T1, Savinase® 16.0L (Lederbergia lenta, UniProt P29600)
T1 construct: purchased Sigma-Aldrich
T1 sequence (P29600 1-269): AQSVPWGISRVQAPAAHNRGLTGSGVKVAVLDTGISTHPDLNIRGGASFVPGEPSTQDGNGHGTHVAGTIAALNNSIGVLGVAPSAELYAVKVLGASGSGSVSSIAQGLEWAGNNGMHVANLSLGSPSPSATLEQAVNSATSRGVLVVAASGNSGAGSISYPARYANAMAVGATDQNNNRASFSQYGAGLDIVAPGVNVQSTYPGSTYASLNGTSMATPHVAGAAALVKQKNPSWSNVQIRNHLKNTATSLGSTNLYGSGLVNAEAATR
Assay: Protease storage stability in liquid formulations at 37° C. (Suc-AAPF-pNA assay)
Format: biochemical
Details: 0.7 wt% Savinase 16.0 L
Protocol: The storage stability of protease was assessed at 37° C.
Base test formulations were manufactured by making base formulations I to V by mixing the components according to Table 1.
Protease used: Savinase® 16.0L (CAS-No. 9014-01-1, EC-No. 232-752-2) was purchased from Sigma-Aldrich.
The respective component (a) or comparative compound was added, if applicable, to the respective base formulation in amounts as indicated in Table 1.
The amount of protease as provided in Table 1 refers to active protein.
Water was added to accomplish the balance to 100.
Savinase activity at certain points in time as indicated in Table 2 was be determined by employing Succinyl-Ala-Ala-Pro-Phe-p-nitroanilide (Suc-AAPF-pNA, short AAPF) as substrate. pNA is cleaved from the substrate molecule by proteolytic cleavage, resulting in release of yellow color of free pNA which was determined by measuring OD405. Measurements were done at 20° C.
The proteolytic activity values provided in Table 3 were calculated referring to the 100% value determined in the reference formulation at the time 0.
The nomenclature of formulations is as follows: the Roman number before the full stop characterizes the base formulation, the Arabian number the type of compound (A. # compound according to invention (component (a)); (B. #) comparative compound).

[1] = base formulation I, 2.5 wt% compound, 3 d
[2] = base formulation I, 2.5 wt% compound, 7 d
[3] = base formulation I, 2.5 wt% compound, 14 d
[4] = base formulation I, 2.5 wt% compound, 21 d
[5] = base formulation I, 2.5 wt% compound, 28 d
[6] = base formulation I, 2.5 wt% compound, 35 d
[7] = base formulation II, 2.5 wt% compound, 3 d
[8] = base formulation II, 2.5 wt% compound, 7 d
[9] = base formulation II, 2.5 wt% compound, 14 d
[10] = base formulation II, 2.5 wt% compound, 21 d
[11] = base formulation II, 2.5 wt% compound, 28 d
[12] = base formulation II, 2.5 wt% compound, 35 d

Compound: CC(=O)OCC(COC(C)=O)OC(C)=O [B.4, glyceroltriacetate, reference compound]
- protease activity in the course of time of storage at 37° C. [1]: 91%
- protease activity in the course of time of storage at 37° C. [2]: 84%
- protease activity in the course of time of storage at 37° C. [3]: 70%
- protease activity in the course of time of storage at 37° C. [4]: 66%
- protease activity in the course of time of storage at 37° C. [5]: 61%
- protease activity in the course of time of storage at 37° C. [6]: 56%
- protease activity in the course of time of storage at 37° C. [7]: 87%
- protease activity in the course of time of storage at 37° C. [8]: 80%
- protease activity in the course of time of storage at 37° C. [9]: 73%
- protease activity in the course of time of storage at 37° C. [10]: 58%
- protease activity in the course of time of storage at 37° C. [11]: 57%
- protease activity in the course of time of storage at 37° C. [12]: 54%

Compound: Diethylcitrate [A.7]
- protease activity in the course of time of storage at 37° C. [1]: 95%
- protease activity in the course of time of storage at 37° C. [2]: 91%
- protease activity in the course of time of storage at 37° C. [3]: 85%
- protease activity in the course of time of storage at 37° C. [4]: 81%
- protease activity in the course of time of storage at 37° C. [5]: 76%
- protease activity in the course of time of storage at 37° C. [6]: 69%
- protease activity in the course of time of storage at 37° C. (base formulation I, 2.5 wt% compound, T0): 100%
- protease activity in the course of time of storage at 37° C. [7]: 98%
- protease activity in the course of time of storage at 37° C. [8]: 96%
- protease activity in the course of time of storage at 37° C. [9]: 94%
- protease activity in the course of time of storage at 37° C. [10]: 90%
- protease activity in the course of time of storage at 37° C. [11]: 87%
- protease activity in the course of time of storage at 37° C. [12]: 83%
- protease activity in the course of time of storage at 37° C. (base formulation II, 2.5 wt% compound, T0): 98%
- protease activity in the course of time of storage at 37° C. (base formulation III, 2.0 wt% compound, 3 d): 96%
- protease activity in the course of time of storage at 37° C. (base formulation III, 2.0 wt% compound, 7 d): 93%
- protease activity in the course of time of storage at 37° C. (base formulation III, 2.0 wt% compound, 14 d): 84%
- protease activity in the course of time of storage at 37° C. (base formulation III, 2.0 wt% compound, 21 d): 83%
- protease activity in the course of time of storage at 37° C. (base formulation III, 2.0 wt% compound, 28 d): 76%
- protease activity in the course of time of storage at 37° C. (base formulation III, 2.0 wt% compound, 35 d): 72%
- protease activity in the course of time of storage at 37° C. (base formulation III, 2.0 wt% compound, T0): 100%

From US20210395650A1, “COMPOUNDS STABILIZING HYDROLASES IN LIQUIDS” (BASF SE, priority 2018, published 2021)
